Assays:
[1] = tested on: Spodoptera exigua (beet armyworm); assay: Insecticidal activity on beet armyworm, treated lepidopteran diet; assay type: in vivo; settings: 120 h, Rate 400 PPM, 250 μL test solution on diet surface, second-instar larvae, 5 days at 25° C., five insects per treatment
Protocol: (§1) Different 2,4-(substituted aromatic)-1,3-oxazoline compounds were tested for insecticidal activity on Spodoptera exigua (beet armyworm) and Myzus persicae (green peach aphid).
The different 2,4-(substituted aromatic)-1,3-oxazoline compounds used on Spodoptera exigua were formulated as test solutions. To prepare the test solutions, the different 2,4-(substituted aromatic)-1,3-oxazoline compounds were formulated at 400 PPM in 7.5 mL of 2:1 acetone:tap water solvent. 250 μL of each test solution was pipetted upon the surface of 8 mL of lepidopteran diet (modified Shorey) contained in each of five one-ounce plastic cups (one cup=1 replication). A second-instar beet armyworm was placed upon the treated diet in each cup once the solvent had air-dried. The cups containing the treated lepidopteran diet and the beet armyworms were capped and then held in a growth chamber at 25° C., 50-55% RH, and 14 hours light:10 hours dark for 5 days. The average % mortality was determined from the number of dead insects of five per treatments.

[2] = tested on: Myzus persicae (green peach aphid); assay: Insecticidal activity on green peach aphid, spray on infested cabbage leaves; assay type: in vivo; settings: 72 h, Rate 50 PPM spray on infested cabbage leaves until runoff, graded after 3 days at 26° C., count compared with untreated check
Protocol: as §1
The different 2,4-(substituted aromatic)-1,3-oxazoline compounds used on Myzus persicae were formulated as test spray solutions. To prepare the test spray solutions, 1 mg of each of the different 2,4-(substituted aromatic)-1,3-oxazoline compounds was dissolved into 1 mL of a 90:10 acetone:ethanol solvent. The resulting solution was added to 19 mL of water containing 0.05% Tween surfactant to produce different 50 PPM spray solutions. Cabbage leaves were […] with green peach aphid (all life stages) 16-20 hours prior to application of the different spray solutions. The different spray solutions were sprayed on both sides of each infested cabbage leaf with a sweeping action until runoff. The cabbage leaves were allowed to dry and were held for 3 days in a controlled room at 26° C. and 40% RH, after which time the test was graded. Grading was by actual count using a dissecting microscope and comparison of test counts to an untreated check. The average % mortality was then determined. In Table 1, “NT” means insecticidal activity was not tested for the 2,4-(substituted aromatic)-1,3-oxazoline compound at this rate.

SMILES: CCOc1ccc(-c2ccc(C3N=C(c4c(F)cccc4F)OC3(C)C)cc2)cc1 (centres unmarked) [(XIV)]
- mortality at 400 ppm [1]: 60%
- mortality at 50 ppm [2]: 40%

SMILES: FC(F)(F)c1ccc(-c2ccc(C3COC(c4c(Cl)cncc4Cl)=N3)cc2)c(Cl)c1 (centres unmarked) [(I)]
- mortality at 400 ppm [1]: 100%
- mortality at 50 ppm [2]: 18%

SMILES: CCOc1ccc(-c2ccc([C@H]3N=C(c4c(F)cccc4Cl)O[C@H]3C)cc2)cc1 (stereo in doubt) [(XIII)]
- mortality at 400 ppm [1]: 100%
- mortality at 50 ppm [2]: 82%

SMILES: CCOc1ccc(-c2ccc(C3COC(c4c(Cl)cncc4Cl)=N3)c(C)c2)cc1 (centres unmarked) [(VII)]
- mortality at 400 ppm [1]: 100%
- mortality at 50 ppm [2]: 82%

SMILES: C[C@@H]1OC(c2c(F)cccc2Cl)=N[C@@H]1c1ccc(-c2ccc(OC(F)(F)F)cc2)cc1 (stereo in doubt) [(XII)]
- mortality at 400 ppm [1]: 100%
- mortality at 50 ppm [2]: 86%

SMILES: C[C@@H]1OC(c2c(F)cccc2F)=N[C@@H]1c1ccc(-c2ccc(C(F)(F)F)cc2)cc1 (stereo in doubt) [(III)]
- mortality at 400 ppm [1]: 100%
- mortality at 50 ppm [2]: 32%

SMILES: Cc1cc(-c2ccc(C(F)(F)F)cc2)ccc1C1COC(c2c(Cl)cncc2Cl)=N1 (centres unmarked) [(VI)]
- mortality at 400 ppm [1]: 100%
- mortality at 50 ppm [2]: 20%

SMILES: Cc1ccccc1C1=N[C@@H](c2ccc(-c3ccc(C(F)(F)F)cc3)cc2)[C@@H](C)O1 (stereo in doubt) [(X)]
- mortality at 400 ppm [1]: 100%
- mortality at 50 ppm [2]: 88%

SMILES: FC(F)(F)c1ccc(-c2ccc(C3COC(c4c(Cl)cncc4Cl)=N3)cc2)cc1 (centres unmarked) [(XV)]
- mortality at 400 ppm [1]: 100%
- mortality at 50 ppm [2]: 75%

SMILES: C[C@H]1OC(c2c(F)cccc2F)=N[C@H]1c1ccc(-c2ccc(OC(F)(F)F)cc2)cc1 (stereo in doubt) [(XVI)]
- mortality at 400 ppm [1]: 100%
- mortality at 50 ppm [2]: 95%

SMILES: Clc1cncc(Cl)c1C1=NC(c2ccc(-c3ccccc3)cc2)CO1 (centres unmarked) [(IV)]
- mortality at 400 ppm [1]: 80%

SMILES: Fc1cncc(F)c1C1=NC(c2ccc(-c3ccc(C(F)(F)F)cc3)cc2)CO1 (centres unmarked) [(II)]
- mortality at 400 ppm [1]: 80%

SMILES: Cc1ccccc1C1=N[C@@H](c2ccc(-c3ccc(OC(F)(F)F)cc3)cc2)[C@@H](C)O1 (stereo in doubt) [(XI)]
- mortality at 400 ppm [1]: 100%
- mortality at 50 ppm [2]: 71%

SMILES: Cc1ccc(-c2ccc([C@@H]3N=C(c4c(F)cccc4F)O[C@H]3C)cc2)cc1C (stereo in doubt) [(IX)]
- mortality at 400 ppm [1]: 60%
- mortality at 50 ppm [2]: 0%

SMILES: Fc1ccc(C(F)(F)F)cc1-c1ccc(C2COC(c3c(Cl)cncc3Cl)=N2)cc1 (centres unmarked) [(V)]
- mortality at 400 ppm [1]: 60%

SMILES: Cc1cc(-c2ccc(OC(F)(F)F)cc2)ccc1C1COC(c2c(F)cccc2Cl)=N1 (centres unmarked) [(VIII)]
- mortality at 400 ppm [1]: 100%
- mortality at 50 ppm [2]: 66%

Source: patent US20130317069A1, “2,4-(SUBSTITUTED AROMATIC)-1,3-OXAZOLINE COMPOUNDS AS A SEED TREATMENT TO CONTROL PESTS” (Dow Agrosciences LLC, priority 2012, published 2013)
